Results as given in ChEMBL document CHEMBL4152270, “Free radical rearrangement synthesis and microbiological evaluation of novel 2-sulfoether-4-quinolone scaffolds as potential antibacterial agents” (Eur J Med Chem, 2018).
≈ marks a conversion by molar mass, not a printed value. Calls of active or inactive are those of the source. The calls are words filed in the database; no cut-off is given here.

Assays:
Pseudomonas aeruginosa = assay: Antimicrobial activity against Pseudomonas aeruginosa after 18 to 20 hrs by micro broth dilution method; assay type: functional
Staphylococcus aureus [1] = assay: Antimicrobial activity against Staphylococcus aureus after 18 to 20 hrs by micro broth dilution method; assay type: functional
Bacillus cereus [2] = assay: Antimicrobial activity against Bacillus cereus after 18 to 20 hrs by micro broth dilution method; assay type: functional
Escherichia coli = assay: Antimicrobial activity against Escherichia coli after 18 to 20 hrs by micro broth dilution method; assay type: functional
Candida albicans = assay: Antimicrobial activity against Candida albicans after 18 to 20 hrs by micro broth dilution method; assay type: functional
Bacillus cereus [3] = assay: Bactericidal activity against Bacillus cereus after 24 hrs by micro broth dilution method; assay type: functional
Staphylococcus aureus [4] = assay: Antimicrobial activity against methicillin-resistant Staphylococcus aureus after 18 to 20 hrs by micro broth dilution method; assay type: functional
Staphylococcus aureus [5] = assay: Bactericidal activity against Staphylococcus aureus after 24 hrs by micro broth dilution method; assay type: functional
Staphylococcus aureus [6] = assay: Induction of cell death in Staphylococcus aureus ATCC 6538 at 0.8 uM after 24 hrs by transmission electron microscopy; assay type: functional, organism-based
Staphylococcus aureus [7] = assay: Induction of cell wall damage in Staphylococcus aureus ATCC 6538 assessed as emergence of solute loss at 0.8 uM after 24 hrs by transmission electron microscopy; assay type: functional, organism-based
Staphylococcus aureus [8] = assay: Growth inhibition of Staphylococcus aureus at 0.25 to 0.5 times MIC after 24 hrs; assay type: functional, organism-based
Staphylococcus aureus [9] = assay: Growth inhibition of Staphylococcus aureus at 1 to 4 times MIC after 24 hrs; assay type: functional, organism-based
Staphylococcus aureus [10] = assay: Induction of morphological changes in Staphylococcus aureus ATCC 6538 assessed as shrinkage of cell morphology at 0.8 uM after 24 hrs by transmission electron microscopy; assay type: functional, organism-based
Staphylococcus aureus [11] = assay: Induction of cell wall damage in Staphylococcus aureus ATCC 6538 assessed as blemishes on cell wall at 0.8 uM after 24 hrs by transmission electron microscopy; assay type: functional, organism-based
DNA gyrase subunit A = DNA gyrase subunit A (Staphylococcus aureus, UniProt P20831); assay: Inhibition of Staphylococcus aureus DNA gyrase subunit A supercoiling activity using relaxed pBR322 DNA as substrate after 60 mins by agarose gel electrophoresis
Staphylococcus aureus [12] = assay: Induction of morphological changes in Staphylococcus aureus ATCC 6538 assessed as cell wall swelling at 0.8 uM after 24 hrs by transmission electron microscopy; assay type: functional, organism-based

Sequence of DNA gyrase subunit A (P20831 whole entry): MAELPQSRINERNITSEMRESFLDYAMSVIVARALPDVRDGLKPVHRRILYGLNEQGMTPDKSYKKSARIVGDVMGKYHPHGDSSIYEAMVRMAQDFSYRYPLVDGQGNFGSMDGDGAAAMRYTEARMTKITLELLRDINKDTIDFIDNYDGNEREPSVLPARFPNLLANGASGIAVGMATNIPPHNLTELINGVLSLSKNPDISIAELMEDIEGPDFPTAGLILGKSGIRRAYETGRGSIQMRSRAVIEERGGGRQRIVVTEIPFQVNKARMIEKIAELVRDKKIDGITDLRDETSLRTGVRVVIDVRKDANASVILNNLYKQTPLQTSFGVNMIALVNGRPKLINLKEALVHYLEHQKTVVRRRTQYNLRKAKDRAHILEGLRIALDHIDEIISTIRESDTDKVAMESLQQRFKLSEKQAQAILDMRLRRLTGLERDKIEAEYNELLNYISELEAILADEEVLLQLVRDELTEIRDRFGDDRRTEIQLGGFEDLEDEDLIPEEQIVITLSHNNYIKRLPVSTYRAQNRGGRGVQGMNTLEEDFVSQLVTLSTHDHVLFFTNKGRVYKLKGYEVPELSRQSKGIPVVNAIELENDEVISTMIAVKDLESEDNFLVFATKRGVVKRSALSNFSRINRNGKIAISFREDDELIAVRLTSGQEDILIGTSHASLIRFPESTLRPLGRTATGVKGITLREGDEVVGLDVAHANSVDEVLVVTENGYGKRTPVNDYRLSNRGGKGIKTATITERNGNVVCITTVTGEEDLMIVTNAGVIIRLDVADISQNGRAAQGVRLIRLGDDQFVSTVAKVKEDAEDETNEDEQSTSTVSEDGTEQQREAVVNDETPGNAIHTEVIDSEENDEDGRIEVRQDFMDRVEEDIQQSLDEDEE

Compound	MIC (Pseudomonas aeruginosa) [µM]	MIC (Staphylococcus aureus [1]) [µM]	MIC (Bacillus cereus [2]) [µM]	MIC (Escherichia coli) [µM]	MIC (Candida albicans)	MBC (Bacillus cereus [3]) [µM]	MIC (Staphylococcus aureus [4]) [µM]	MBC (Staphylococcus aureus [5]) [µM]	Activity (Staphylococcus aureus [6])	Activity (Staphylococcus aureus [7])	growth inhibition (GI) (Staphylococcus aureus [8])	growth inhibition (GI) (Staphylococcus aureus [9])	Activity (Staphylococcus aureus [10])	Activity (Staphylococcus aureus [11])	IC50 (DNA gyrase subunit A) [µM]	Activity (Staphylococcus aureus [12])
CSc1[nH]c2ccccc2c(=O)c1C(C)=O	> 200	> 200	> 200	> 200	> 200 µM											
CSc1[nH]c2cc(C(F)(F)F)ccc2c(=O)c1C(C)=O	> 200	3.12 (≈ 0.942 µg/mL)	50 (≈ 15.1 µg/mL)	> 200	> 200 µM	> 200	> 200	6.25 (≈ 1.88 µg/mL)								
CSc1[nH]c2c(Cl)cccc2c(=O)c1C(C)=O	> 200	> 200	> 200	> 200	> 200 µM											
CSc1[nH]c2ccc(C)cc2c(=O)c1C(C)=O	> 200	> 200	> 200	> 200	> 200 µM											
CSc1[nH]c2c(C(F)(F)F)ccc(C(F)(F)F)c2c(=O)c1C(C)=O	> 200	0.8 (≈ 0.295 µg/mL)	1.6 (≈ 0.591 µg/mL)	> 200	200 µM	6.25 (≈ 2.31 µg/mL)	> 200	6.25 (≈ 2.31 µg/mL)	Active	Active	inactive	Active	Active	Active	1.92	Active
CSc1[nH]c2c(Cl)cc([N+](=O)[O-])cc2c(=O)c1C(C)=O	> 200	12.5 (≈ 3.91 µg/mL)	6.25 (≈ 1.95 µg/mL)	> 200	> 200 µM	> 200	> 200	> 200							80.3	
COc1ccc2[nH]c(SC)c(C(C)=O)c(=O)c2c1	> 200	> 200	> 200	> 200	> 200 µM											
CC(=O)c1c([S+](C)[O-])[nH]c2ccc(C(F)(F)F)cc2c1=O (stereo not given)	> 200	12.5 (≈ 3.97 µg/mL)	3.12 (≈ 0.992 µg/mL)	> 200	> 200 µM	50 (≈ 15.9 µg/mL)	> 200	50 (≈ 15.9 µg/mL)								
CN(C)[C@@H]1C(O)=C(C(N)=O)C(=O)[C@@]2(O)C(O)=C3C(=O)c4c(O)cccc4[C@@](C)(O)[C@H]3C[C@@H]12 [TETRACYCLINE]	2 (≈ 0.889 µg/mL)	0.0325 (≈ 0.0144 µg/mL)	1.6 (≈ 0.711 µg/mL)	0.25 (≈ 0.111 µg/mL)		3.2 (≈ 1.42 µg/mL)	200 (≈ 88.9 µg/mL)	0.125 (≈ 0.0556 µg/mL)								
CSc1[nH]c2c(C)cccc2c(=O)c1C(C)=O	> 200	> 200	> 200	> 200	> 200 µM											
CC1COc2c(N3CCN(C)CC3)c(F)cc3c(=O)c(C(=O)O)cn1c23 (stereo not given) [OFLOXACIN]	4 (≈ 1.45 µg/mL)	0.125 (≈ 0.0452 µg/mL)	0.8 (≈ 0.289 µg/mL)	0.5 (≈ 0.181 µg/mL)		1.6 (≈ 0.578 µg/mL)	100 (≈ 36.1 µg/mL)	0.5 (≈ 0.181 µg/mL)								
CSc1[nH]c2ccc(C(F)(F)F)cc2c(=O)c1C(C)=O	> 200	6.25 (≈ 1.88 µg/mL)	50 (≈ 15.1 µg/mL)	> 200	> 200 µM	> 200	> 200	25 (≈ 7.53 µg/mL)								
CSc1[nH]c2c(Cl)cc(C(F)(F)F)cc2c(=O)c1C(C)=O	> 200	0.8 (≈ 0.269 µg/mL)	1.6 (≈ 0.537 µg/mL)	> 200	> 200 µM	6.25 (≈ 2.1 µg/mL)	> 200	6.25 (≈ 2.1 µg/mL)			inactive	Active			8.01	
OC(Cn1cncn1)(Cn1cncn1)c1ccc(F)cc1F [FLUCONAZOLE]					1 µg/mL											
